# Experimental data: patent publication US20230348369A1 (Cytokinetics, Inc., priority 2020, published 2023)
# Read-outs that look alike come from different tables or passages of the source.
# Tests used:
# [1] = molecular target: T1, endogenous NAMPT (Homo sapiens, UniProt P43490); test: Cellular NAD+ modulation assay in neuroblastoma SH-SY5Y cells; format: cell-based
# T1 construct: stimulate the endogenous NAMPT in a native cellular environment; endogenous in cells; host or cells: SH-SY5Y neuroblastoma cells
# Description: The compounds described herein were also assayed for their ability to stimulate the endogenous NAMPT in a native cellular environment in the cellular NAD+ modulation assay, which measures the ability of the compound to modulate cellular NAD levels. Increased levels of NAD are expected by compounds that permeate the cells and activate the catalytic activity of the endogenous NAMPT.
# Neuroblastoma SH-SY5Y cells were grown in 1:1 mixture of Eagle's Minimum Essential Medium and F12 Medium, along with 10% fetal bovine serum, in a humidified incubator with an atmosphere of 95% air and 5% CO2 at 37° C. The assays were initiated by plating 20 μL of SH-SY5Y cells in culture medium with 0.1% fetal bovine serum, at a density of 5000 cells per well to a 384-well Corning™ BioCoat™ Poly-D-Lysine Multiwell Plates. The plates were incubated in the 37° C. incubators for a period of 5 hours. Compounds in DMSO were added to the plates in a volume of 120 nL using the Labcyte Echo Liquid Handlers. […] The plates are then incubated for 40 hours. 30 μL of a readout-solution containing 0.2 U/mL Diaphorase enzyme, 40 uM resazurin, 10 uM FMN, 0.8 U/mL Alcohol dehydrogenase, 3% ethanol, 0.4 mg/mL bovine serum albumin, 0.2% Triton X-100 in 100 mM Tris-HCl, 30 mM EDTA, pH 8.4. The plates were read for fluorescence (Excitation/Emission=540 nm/590 nm) using an EnVision plate reader after 60 mins of incubation at ambient temperature.
# [2] = molecular target: human NAMPT (Homo sapiens, UniProt P43490); test: Human recombinant enzyme assay (NMN fluorescence biochemical assay, activation of NAMPT)
# Method in brief: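 Activation of recombinant human NAMPT (6 nM) with 2.5 mM ATP, 20 μM PRPP and 150 μM nicotinamide in 50 mM HEPES pH 7.2, 1 mM DTT, 1 mM CHAPS, 50 mM NaCl, 100 mM MgCl2; 60 min, ambient temperature. NMN formed was derivatized with acetophenone/KOH/formic acid, fluorescence read at 355/460 nm after 40 min.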
# [3] = Table B, SH-SY5Y cells, cellular NAD levels, doxorubicin, 40 hours
# [4] = Table B, SH-SY5Y cells, cellular NAD levels, doxorubicin, 40 hours, read-out: EC50
# [5] = Table A, human recombinant NAMPT, NMN formation, 60 min
# [6] = Table A, human recombinant NAMPT, NMN formation, 60 min, read-out: EC50 Human
# Chain of human NAMPT (P43490 whole entry): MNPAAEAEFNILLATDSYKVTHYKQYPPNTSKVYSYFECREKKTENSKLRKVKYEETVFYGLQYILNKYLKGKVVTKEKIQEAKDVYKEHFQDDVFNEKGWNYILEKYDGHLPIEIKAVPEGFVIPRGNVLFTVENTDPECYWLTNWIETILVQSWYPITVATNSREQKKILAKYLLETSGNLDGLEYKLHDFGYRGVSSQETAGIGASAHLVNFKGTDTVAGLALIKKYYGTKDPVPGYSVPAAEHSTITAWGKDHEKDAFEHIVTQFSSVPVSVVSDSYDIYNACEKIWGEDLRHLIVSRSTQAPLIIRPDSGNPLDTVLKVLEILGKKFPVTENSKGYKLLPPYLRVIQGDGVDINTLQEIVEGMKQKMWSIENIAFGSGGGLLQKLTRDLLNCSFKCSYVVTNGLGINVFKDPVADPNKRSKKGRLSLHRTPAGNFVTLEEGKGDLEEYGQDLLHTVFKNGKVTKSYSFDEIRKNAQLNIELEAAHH
# T1 sequence (P43490 whole entry): as above
"AC0.3 [1, 3] [µM]","EC50 [1, 4] [µM]","AC1.4 Human [2, 5] [µM]","EC50 [2, 6] [µM]",Compound,EC50 [1] [µM],EC50 [2] [µM]
0.3,0.9,0.1,1.5,"COc1ccc(CNC(=O)NC2CC3(C2)CC(C(=O)N2CCCc4ccccc42)C3)cc1 (stereo not drawn) [Compound 71, 1-(4-methoxybenzyl)-3-(6-(1,2,3,4-tetrahydroquinoline-1-carbonyl)spiro[3.3]heptan-2-yl)urea]",,
0.8,0.8,1.2,7.7,"COc1ccc(CNC(=O)NC2CC3(C2)CC(C(=O)N2Cc4ccccc4C2)C3)cc1 (stereo not drawn) [Compound 73, 1-(6-(isoindoline-2-carbonyl)spiro[3.3]heptan-2-yl)-3-(4-methoxybenzyl)urea]",,
0.3,0.5,0.8,13.3,"COc1ccc(CNC(=O)NC2CC3(C2)CC(C(=O)N2CCc4ccccc42)C3)cc1 (stereo not drawn) [Compound 74, 1-(6-(indoline-1-carbonyl)spiro[3.3]heptan-2-yl)-3-(4-methoxybenzyl)urea]",,
5.3,12.7,0.1,2.8,"COc1ccc(CNC(=O)NC2CC3(C2)CC(C(=O)N2CCCc4cc(C)ccc42)C3)cc1 (stereo not drawn) [Compound 84, 1-(4-methoxybenzyl)-3-(6-(6-methyl-1,2,3,4-tetrahydroquinoline-1-carbonyl)spiro[3.3]heptan-2-yl)urea]",,
0.9,0.8,0.1,1.6,"COc1ccc(CNC(=O)NC2CC3(C2)CC(C(=O)N2CCOc4ccccc42)C3)cc1 (stereo not drawn) [Compound 85, 1-(6-(3,4-dihydro-2H-benzo[b][1,4]oxazine-4-carbonyl)spiro[3.3]heptan-2-yl)-3-(4-methoxybenzyl)urea]",,
3.4,2.4,0.6,27.4,"COc1ccc(CNC(=O)NC2CC3(C2)CC(C(=O)N(C)c2ccccc2)C3)cc1 (stereo not drawn) [Compound 87, 6-(3-(4-methoxybenzyl)ureido)-N-methyl-N-phenylspiro[3.3]heptane-2-carboxamide]",,
0.9,0.8,0.3,5.1,"COc1ccc(CNC(=O)NC2CC3(C2)CC(C(=O)N2CCCc4cnccc42)C3)cc1 (stereo not drawn) [Compound 90, 1-(4-methoxybenzyl)-3-(6-(1,2,3,4-tetrahydro-1,6-naphthyridine-1-carbonyl)spiro[3.3]heptan-2-yl)urea]",,
9.1,10.1,5.7,43.2,"COc1ccc(CNC(=O)NC2CC3(C2)CN(C(=O)c2ccc(C)nc2)C3)cc1 [Compound 138, 1-(4-methoxybenzyl)-3-(2-(6-methylnicotinoyl)-2-azaspiro[3.3]heptan-6-yl)urea]",,
8.2,6.3,7.5,52.5,"COc1ccc(CNC(=O)NC2CC3(C2)CN(C(=O)c2ccnc(C)c2)C3)cc1 [Compound 140, 1-(4-methoxybenzyl)-3-(2-(2-methylisonicotinoyl)-2-azaspiro[3.3]heptan-6-yl)urea]",,
1.1,3.1,1.4,45.3,"COc1ccc(CNC(=O)NC2CC3(C2)CN(C(=O)c2ccc(C)cc2)C3)cc1 [Compound 145, 1-(4-methoxybenzyl)-3-(2-(4-methylbenzoyl)-2-azaspiro[3.3]heptan-6-yl)urea]",,
0.3,0.8,7.5,15.7,"Cc1cccc(C(=O)N2CC[C@]3(C2)C[C@@H](NC(=O)NCc2ccc(Cl)cc2)C3)c1 [Compound 161, 1-(4-chlorobenzyl)-3-((2r,4s)-6-(3-methylbenzoyl)-6-azaspiro[3.4]octan-2-yl)urea]",,
11.6,12.9,12.6,40.1,"Cc1ccc(C(=O)N2CC[C@]3(C2)C[C@H](NC(=O)NCc2ccc(Cl)cc2)C3)cc1 [Compound 164, 1-(4-chlorobenzyl)-3-((2s,4r)-6-(4-methylbenzoyl)-6-azaspiro[3.4]octan-2-yl)urea]",,
0.2,0.5,2.2,4.3,"Cc1ccc(C(=O)N2CC3(CC(NC(=O)NCc4ccc(Cl)cc4)C3)C2)cc1 [Compound 206, 1-(4-chlorobenzyl)-3-(2-(4-methylbenzoyl)-2-azaspiro[3.3]heptan-6-yl)urea]",,
9.7,9,1.9,49.9,"Cc1ccc(C(=O)N2CC3(CC(NC(=O)NCc4ccncc4)C3)C2)cc1 [Compound 210, 1-(2-(4-methylbenzoyl)-2-azaspiro[3.3]heptan-6-yl)-3-(pyridin-4-ylmethyl)urea]",,
>20.1,,0.5,27.8,"Cc1ccc(C(=O)N2CC3(CC(NC(=O)NCc4ccc(C(N)=O)cc4)C3)C2)cc1 [Compound 211, 4-((3-(2-(4-methylbenzoyl)-2-azaspiro[3.3]heptan-6-yl)ureido)methyl)benzamide]",,

# The next lines start with the compound.
Compound,"AC0.3 [1, 3] [µM]","EC50 [1, 4] [µM]","AC1.4 Human [2, 5] [µM]","EC50 [2, 6] [µM]",EC50 [1] [µM],EC50 [2] [µM]
"COc1ccc(CNC(=O)NC2CC3(C2)CC(C(=O)N2CCN(CC(C)(C)O)CC2)C3)cc1 (stereo not drawn) [Compound 76, 1-(6-(4-(2-hydroxy-2-methylpropyl)piperazine-1-carbonyl)spiro[3.3]heptan-2-yl)-3-(4-methoxybenzyl)urea]",5.9,4.7,0.7,17.8,,
CC(C)(O)CN1CCN(C(=O)C2CC3(CC(NC(=O)NCc4ccc(Cl)cc4)C3)C2)CC1 (stereo not drawn) [Compound 110],0.5,,0.7,,0.3,3.9
"O=C(NCc1ccc(Cl)cc1)NC1CC2(C1)CC(NS(=O)(=O)Cc1ccccc1Cl)C2 (stereo not drawn) [Compound 120, N-(6-(3-(4-chlorobenzyl)ureido)spiro[3.3]heptan-2-yl)-1-(2-chlorophenyl)methanesulfonamide]",0.2,0.3,0.5,2.6,,
O=C(NCc1ccc(Cl)cc1)NC1CC2(C1)CC(NS(=O)(=O)c1ccccc1)C2 (stereo not drawn) [Compound 121],0.6,,1.5,,1.2,5.7
COc1ccc(CNC(=O)NC2CC3(CC(Cn4ncc5ccccc54)C3)C2)cc1 (stereo not drawn) [Compound 134],8.0,12.7,0.6,7.2,,
"COc1ccc(CNC(=O)NCCCCCOc2ccccc2)cc1 [Compound 149, 1-(4-methoxybenzyl)-3-(5-phenoxypentyl)urea]",0.6,1.1,0.3,4.9,,
"Cc1ccccc1C(=O)N1CC[C@]2(C1)C[C@@H](NC(=O)NCc1ccc(Cl)cc1)C2 [Compound 162, 1-(4-chlorobenzyl)-3-((2r,4s)-6-(2-methylbenzoyl)-6-azaspiro[3.4]octan-2-yl)urea]",0.7,1,6.2,21.7,,
"O=C(NCCOCCOc1ccccc1)NCc1ccc(Cl)cc1 [Compound 196, 1-(4-chlorobenzyl)-3-(2-(2-phenoxyethoxy)ethyl)urea]",1.0,3.3,3.7,25.5,,
"Cc1cccc(N2CC[C@]3(C2)C[C@H](NC(=O)NCc2ccc(Cl)cc2)C3)n1 [Compound 199, 1-(4-chlorobenzyl)-3-((2s,4r)-6-(6-methylpyridin-2-yl)-6-azaspiro[3.4]octan-2-yl)urea]",2.0,,10.6,42.2,,
"CN(C(=O)[C@H]1C[C@@]2(C[C@H](NC(=O)NCc3ccc(Cl)cc3)C2)C1)C1CCOC1 (stereo partly drawn) [Compound 202, (2S,4s,6S)-6-(3-(4-chlorobenzyl)ureido)-N-methyl-N-((R)-tetrahydrofuran-3-yl)spiro[3.3]heptane-2-carboxamide]",0.5,0.6,0.9,2.2,,
"Cc1ncccc1C(=O)NC1CC2(CC(NC(=O)NCc3ccc(Cl)cc3)C2)C1 (stereo not drawn) [Compound 203, N-(6-(3-(4-chlorobenzyl)ureido)spiro[3.3]heptan-2-yl)-2-methylnicotinamide]",8.9,10,8.2,34.3,,
